Laboratory results published in patent EP2241565A1, “Aurora kinase inhibitors compounds” (Universität Leipzig, priority 2009, dated 2010).
“Also recorded” adds a separate entry of the source.

Experiments:
KDR (VEGFR2) = target: T1, KDR (VEGFR2) (Homo sapiens, UniProt P35968); test: RTK-Assay (ELISA, chemiluminescence); type: biochemical; conditions: read-out: IC50 KDR (VEGFR 2)
T1 construct: GST (N); purchased Biomol
Description: To determine the IC50 of receptor-tyrosine-kinase an assay based on the ELISA-principle using kinases from Biomol (N-terminally fused to GST), POD-coupled antibody from Calbiochem (PY20) and BM chemiluminescence ELISA substrate from Roche was followed.
In short, a white 96 wells microplate was incubated overnight with 100 µl/well of the substrate solution (poly-Glu-Tyr diluted with PBS to 100 µg/ml) at 4 °C. The solution was removed and the plate was washed twice for 2 min with PBS-T. Afterwards the kinase solution (50 µl/well)( KDR (VEGFR2), 5 ng; Flt4 (VEGFR3), 20 ng; EGFR, 5 ng; IGFR, 15 ng; FGFR, 10 ng and Tie2, 20 ng) and the inhibitor solution (25 µl/well) were added to each well. To perform positive and negative control, 5% aqueous DMSO (25 µl/well) were used instead of inhibitor solution. Addition of ATP solution (25 µl/well) started the reaction, whereas 40 mM MnCl2 solution (25 µl/well) was added to the negative control instead of ATP. After incubation under mild shaking conditions for 30 min at rt the plate was washed with PBS-T (3 x 2 min) and subsequently incubated with antibody solution (anti-Phosphotyrosine-antibody (POD-coupled) diluted 1:10.000 in PBS-T + 0,2% (m/v) BSA)(100 µl/well) for 1 h again while shaking. In the end the plate was washed with PBS-T (3x5 min) and provided with the chemiluminescence substrate (50 µl/well). After 3 min the occurring luminescence was measured using a luminometer. […] For determination of IC50 values, the relative luminescence units per second (RLU/s) were blotted against the inhibitor concentrations. In doing so each concentration measurement was done triplicate and at least 5 different inhibitor concentrations were used to determine IC50 value.
This assay is based on the ELISA-principle using kinases from Biomol (N-terminally fused to GST), POD-coupled antibody from Calbiochem (PY20) and BM chemiluminescence ELISA substrate from Roche. […]
For determination of IC50 values, the relative luminescence units per second (RLU/s) were blotted against the inhibitor concentrations. […]

HeLa cells = test: Fixed cell analysis of mitotic phenotypes (fluorescence / immunofluorescence); type: cell-based, human; conditions: 40 µM, 24 h
Description: For fixed cell analysis, HeLa or H2B-GFP/mRFP-αTubulin HeLa cells were grown on glass coverslips and treated as described above. Cells were fixed in ice cold methanol and mounted in Mowiol. Alternatively, non fluorescent HeLa were treated and subjected to immunofluorescence with anti-tubulin antibodies (Sigma, DM1A) and Hoechst to stain the DNA. Cells were observed on a Leica DM16000B microscope with the HCX PL APO CS 63x 1.4 objective. Images were taken with a Leica DFC 350FX camera, controlled by Leica Application Suit (LAS-AF 6000) software and processed with Adobe Photoshop.
To get a better idea about the defects causing cell division failure in cells treated with (C), we examined fixed cells to better visualize the chromosomes and the microtubules. […] In parallel, standard HeLa cells were treated in the same way. The cells were fixed and processed for immunofluorescence with anti-tubulin antibodies to visualize the microtubules and Hoechst to stain the DNA.

T1 sequence (P35968 20-1356, species assumed): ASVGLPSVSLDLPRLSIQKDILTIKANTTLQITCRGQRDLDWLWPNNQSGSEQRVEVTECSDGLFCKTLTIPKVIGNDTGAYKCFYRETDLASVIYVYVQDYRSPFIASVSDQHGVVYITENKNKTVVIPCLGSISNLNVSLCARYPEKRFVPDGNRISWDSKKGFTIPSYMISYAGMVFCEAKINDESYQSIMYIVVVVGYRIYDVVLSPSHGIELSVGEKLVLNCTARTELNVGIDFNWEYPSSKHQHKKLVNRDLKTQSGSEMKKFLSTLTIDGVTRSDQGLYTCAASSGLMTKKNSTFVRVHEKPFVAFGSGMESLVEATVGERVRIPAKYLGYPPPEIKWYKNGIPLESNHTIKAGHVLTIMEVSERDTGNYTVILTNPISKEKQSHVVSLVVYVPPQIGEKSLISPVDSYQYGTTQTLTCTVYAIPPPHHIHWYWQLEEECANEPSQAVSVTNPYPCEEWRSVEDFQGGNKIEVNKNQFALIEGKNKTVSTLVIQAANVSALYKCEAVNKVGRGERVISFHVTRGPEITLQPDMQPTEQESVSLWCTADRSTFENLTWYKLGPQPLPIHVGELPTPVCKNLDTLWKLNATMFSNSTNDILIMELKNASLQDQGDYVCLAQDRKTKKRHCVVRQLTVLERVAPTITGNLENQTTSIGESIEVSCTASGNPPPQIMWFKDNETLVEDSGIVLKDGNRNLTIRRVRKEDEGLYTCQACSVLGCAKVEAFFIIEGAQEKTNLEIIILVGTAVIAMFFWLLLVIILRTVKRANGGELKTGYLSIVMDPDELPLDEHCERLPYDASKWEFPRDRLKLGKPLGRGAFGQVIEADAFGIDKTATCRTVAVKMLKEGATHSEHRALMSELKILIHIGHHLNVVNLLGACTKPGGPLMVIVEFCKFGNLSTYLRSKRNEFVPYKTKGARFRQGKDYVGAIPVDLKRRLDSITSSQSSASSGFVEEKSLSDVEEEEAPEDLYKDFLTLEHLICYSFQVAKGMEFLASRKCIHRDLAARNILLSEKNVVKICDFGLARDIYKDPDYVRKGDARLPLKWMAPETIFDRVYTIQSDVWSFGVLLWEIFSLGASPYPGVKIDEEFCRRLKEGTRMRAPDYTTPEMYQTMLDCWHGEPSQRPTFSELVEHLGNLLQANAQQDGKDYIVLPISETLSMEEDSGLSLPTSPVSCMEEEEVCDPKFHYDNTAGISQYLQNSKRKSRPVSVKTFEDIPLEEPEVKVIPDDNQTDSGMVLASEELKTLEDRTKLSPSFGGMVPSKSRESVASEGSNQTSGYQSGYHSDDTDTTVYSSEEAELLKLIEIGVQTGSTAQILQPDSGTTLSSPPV

CC(C)Nc1nc(-c2ccco2)nc2ccc(C#CCO)cc12 [Compound (C), 3-(2-(Furan-2-yl)-4-(isoiproipylamino)quinazolin-6-yl)prop-2-yn-l-ol]
IC50 (KDR (VEGFR2)): > 100 µM | mitotic phenotype of fixed cells (HeLa cells): increased formation of multipolar spindles and other abnormal mitotic structures; also recorded: large proportion of abnormal mitotic spindles
